Results as given in paper PMC12311865, “In Vitro Evaluation of the Potential Interactions of Zearalenone-14-sulfate and Zearalenone-14-glucuronide with Human Cytochrome P450 Enzymes, Organic Anion Transporting Polypeptides, and ATP-Binding Cassette Multidrug Transporters” (ACS Omega, 2025).
Where two headings read alike, the source gives them in different places.

Experiments:
CYP1A2 = target: T1, CYP1A2 (Homo sapiens, UniProt P05177); conditions: each 20 μM; 0.2 vol % DMSO
T1 sequence (P05177 1-516): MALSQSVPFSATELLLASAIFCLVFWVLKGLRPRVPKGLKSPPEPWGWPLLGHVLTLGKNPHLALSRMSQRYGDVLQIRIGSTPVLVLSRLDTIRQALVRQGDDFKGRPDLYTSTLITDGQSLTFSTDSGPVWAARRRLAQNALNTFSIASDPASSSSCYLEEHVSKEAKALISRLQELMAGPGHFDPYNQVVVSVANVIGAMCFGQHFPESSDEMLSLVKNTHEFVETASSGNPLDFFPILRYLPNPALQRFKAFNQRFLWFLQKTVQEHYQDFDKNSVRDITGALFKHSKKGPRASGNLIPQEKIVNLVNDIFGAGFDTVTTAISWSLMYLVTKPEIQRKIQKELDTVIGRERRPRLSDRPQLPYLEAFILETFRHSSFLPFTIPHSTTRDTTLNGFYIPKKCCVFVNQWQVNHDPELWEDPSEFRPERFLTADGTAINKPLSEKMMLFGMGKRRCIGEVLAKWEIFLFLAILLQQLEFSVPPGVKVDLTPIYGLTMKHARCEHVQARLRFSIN
Method: We applied 10 mM stock solutions of mycotoxins (dissolved in DMSO), and the samples (including controls and positive controls) contained uniformly 0.2 vol % DMSO.

OATP2B1 = target: T2, OATP2B1 (Homo sapiens, UniProt O94956); experiment: OATP2B1-mediated pyranine uptake in overexpressing A431 cells; type: cell-based
T2 construct: expressed in transfected cells; host or cells: A431
T2 sequence (O94956 1-709): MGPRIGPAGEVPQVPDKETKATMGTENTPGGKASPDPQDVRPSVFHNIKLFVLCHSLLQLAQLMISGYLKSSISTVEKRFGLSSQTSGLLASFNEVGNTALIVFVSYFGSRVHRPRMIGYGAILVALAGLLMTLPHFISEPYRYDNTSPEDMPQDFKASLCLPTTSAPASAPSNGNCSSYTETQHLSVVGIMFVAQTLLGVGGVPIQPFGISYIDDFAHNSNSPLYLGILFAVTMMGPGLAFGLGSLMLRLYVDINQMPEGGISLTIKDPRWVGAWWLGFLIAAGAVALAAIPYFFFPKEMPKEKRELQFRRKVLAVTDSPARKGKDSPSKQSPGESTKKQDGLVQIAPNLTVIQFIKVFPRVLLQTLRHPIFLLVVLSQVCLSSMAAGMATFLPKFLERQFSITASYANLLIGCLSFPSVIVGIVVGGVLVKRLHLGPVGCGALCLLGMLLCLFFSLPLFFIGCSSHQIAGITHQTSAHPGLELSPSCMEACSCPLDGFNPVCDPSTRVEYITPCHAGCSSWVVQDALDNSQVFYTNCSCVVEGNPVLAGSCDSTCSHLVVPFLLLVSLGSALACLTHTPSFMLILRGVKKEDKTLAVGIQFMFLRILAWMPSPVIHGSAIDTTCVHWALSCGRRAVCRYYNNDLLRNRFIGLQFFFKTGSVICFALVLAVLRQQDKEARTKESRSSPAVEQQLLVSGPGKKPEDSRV
Method: (§1) The human epidermoid carcinoma cell (A431) overexpressing OATP1A2, OATP1B1, OATP1B3, or OATP2B1 transporters and their mock control cells were generated previously as described. , Cell culture was maintained in DMEM supplemented with 10% fetal bovine serum, 2 mM L-glutamine, 100 units/mL penicillin, and 100 μg/mL streptomycin at 37 °C and 5% CO2.
(§2) The inhibitory effects of mycotoxins (Z14S and Z14GA) were examined using indirect fluorescence assays, where pyranine and SR101 were used as fluorescent substrates. , A431 cells overexpressing OATP1A2, OATP1B1/3, or OATP2B1 and their mock-transfected controls were seeded at a density of 8 × 10^4 cells/well onto 96-well plates and incubated for 18–22 h prior to transport measurements. The next day, plated cells were washed three times with 200 μL of PBS (phosphate-buffered saline, pH 7.4) and preincubated with 50 μL of transport buffer (pH 5.5; 125 mM NaCl, 4.8 mM KCl, 1.2 mM CaCl2, 1.2 mM KH2PO4, 12 mM MgSO4, 25 mM MES, and 5.6 mM glucose) with or without increasing concentrations of the mycotoxins tested (0.001–20 μM) for 5 min at 37 °C. The transport inhibition measurements were initiated by adding 50 μL of transport buffer containing the proper fluorescent substrate SR101 (0.5 μM, OATP1A2) or pyranine (10 μM for OATP1B1 or 20 μM for OATP1B3 and OATP2B1). After 10 min (OATP1A2), 15 min (OATP1B1 and OATP2B1), or 30 min (OATP1B3) incubation, the transport was terminated by washing the cells three times with ice-cold PBS. Regarding the individual OATP assays, we applied different incubation times to keep the substrate uptake in the linear range, , avoiding substrate depletion or saturation effects, as it is indispensable for the accurate assessment. Using an Enspire plate reader (PerkinElmer, Waltham, MA), the fluorescence was measured at excitation/emission wavelengths of 460/510 nm (pyranine) or 586/605 nm (SR101).
(§3) OATP-mediated transport was obtained by subtracting the activity of the mock control cells from the activity of the OATP-expressing cells. The transport activity (%) of the OATPs was calculated by comparing the fluorescence signal obtained in the absence of the compounds tested (set to 100%).

OATP1A2 = target: T3, OATP1A2 (Homo sapiens, UniProt P46721); experiment: OATP1A2-mediated SR101 uptake in overexpressing A431 cells; type: cell-based
T3 construct: expressed in transfected cells; host or cells: A431
T3 sequence (P46721 1-670): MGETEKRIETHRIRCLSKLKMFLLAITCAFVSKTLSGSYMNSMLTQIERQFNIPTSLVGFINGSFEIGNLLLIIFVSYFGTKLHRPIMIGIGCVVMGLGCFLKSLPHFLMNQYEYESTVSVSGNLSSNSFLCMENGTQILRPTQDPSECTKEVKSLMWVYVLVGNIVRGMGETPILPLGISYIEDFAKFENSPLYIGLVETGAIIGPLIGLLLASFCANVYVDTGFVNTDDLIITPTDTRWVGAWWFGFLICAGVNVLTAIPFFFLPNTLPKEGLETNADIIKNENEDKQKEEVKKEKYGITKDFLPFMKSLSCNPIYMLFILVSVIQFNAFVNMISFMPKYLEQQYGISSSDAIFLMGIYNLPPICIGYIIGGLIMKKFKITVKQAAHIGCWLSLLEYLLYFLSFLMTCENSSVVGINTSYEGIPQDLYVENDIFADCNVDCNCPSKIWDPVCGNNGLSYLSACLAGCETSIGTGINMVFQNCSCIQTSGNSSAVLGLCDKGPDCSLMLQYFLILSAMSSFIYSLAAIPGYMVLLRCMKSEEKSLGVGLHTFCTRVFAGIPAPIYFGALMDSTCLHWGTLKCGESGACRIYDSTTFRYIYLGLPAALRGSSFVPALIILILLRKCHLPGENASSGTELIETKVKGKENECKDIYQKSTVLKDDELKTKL
Method: as §1
as §2, with “Regarding the individual OATP assays, we applied different incubation times to keep the substrate uptake in the linear range, , avoiding substrate depletion or saturation effects, as it is indispensable for the accurate assessment.” left out
as §3

Compound | inhibition of CYP1A2 activity (CYP1A2) | IC50 (OATP2B1; pyranine 20 μM, 15 min, A431 cells, read-out: IC50 for OATP2B1) | IC50 (OATP1A2; SR101 0.5 μM, 10 min, A431 cells, read-out: IC50 for OATP1A2) | IC50 (OATP2B1) | effect on OATP2B1-mediated dye uptake (OATP2B1; 5 μM, pyranine substrate) | decrease in OATP2B1 transport activity (OATP2B1; 20 μM, pyranine substrate, A431 cells) | stronger inhibition on OATP2B1 compared to ZEN (OATP2B1; ratio of IC50 values vs ZEN) | IC50 (OATP1A2) | decrease in OATP1A2 transport activity (OATP1A2; 20 μM, SR101 substrate, A431 cells)
C[C@H]1CCCC(=O)CCC/C=C/c2cc(O[C@@H]3O[C@H](C(=O)O)[C@@H](O)[C@H](O)[C@H]3O)cc(O)c2C(=O)O1 [Z14GA, Zearalenone-14-glucuronide] | no effects | 1100 nM | > 20000 nM |  |  |  |  |  | 
C[C@H]1CCCC(=O)CCC/C=C/c2cc(OS(=O)(=O)O)cc(O)c2C(=O)O1 [Z14S, zearalenone-14-sulfate] | did not influence |  |  | 340 nM | completely abolished | 80–100% | approximately 7 fold | 1400 nM | 80–100%
